The test system of one assay is PDE1. Put plainly: PDE1 activity and inhibition assay (bis-p-nitrophenyl phosphate, OD 405 nm). The note with it: inhibitor final concentration 0.125 μg/μl; substrate bis-p-nitrophenyl phosphate. In kind it is biochemical. As to the method:
The activity of PDE1 was determined in an enzymatic assay as described below, using: • Enzyme: 10 μg/μl PDE1 (Lot.#: SLBD8711V, SIGMA-ALDRICH) • Substrate: 0.001 M Bis-p-nitrophenyl phosphate (Lot.#: 021M5003V, SIGMA-5 ALDRICH) • Buffer: 0.1M Tris-HCl, pH 8.9 • Inhibitor (trans-aconitic acid (TAA), Calycosin, Kaempferol 3-O-rutinoside, and Wogonin): 1 μg/μl (final concentration 0.125 μg/μl)
An example of the enzymatic assay is illustrated in FIG. 1. Briefly, substrate (50 μl) and buffer (200 μl) were placed in a plastic disposable cuvette (Cat.#: BL6224, Basic Life). PDE1 (100 μl) and each of the four inhibitors (50 μl) or the buffer (50 μl) as a control were then added into the cuvette. The total volume of the reaction mixture is 400 μl. After incubating the enzymatic reaction mixture for a suitable period of time, the optical density was detected by a spectrophotometer at a wave length of 405 nm (U-3300, HITACHI). The optical densities of the reaction mixtures containing the inhibitors were compared with that of the control mixture and the percentages of inhibition were calculated.

The target of the next assay is T1, PDE7A1 (Homo sapiens, UniProt Q13946).
T1 construct: purchased CALBIOCHEM 524751
T1 sequence (Q13946 whole entry): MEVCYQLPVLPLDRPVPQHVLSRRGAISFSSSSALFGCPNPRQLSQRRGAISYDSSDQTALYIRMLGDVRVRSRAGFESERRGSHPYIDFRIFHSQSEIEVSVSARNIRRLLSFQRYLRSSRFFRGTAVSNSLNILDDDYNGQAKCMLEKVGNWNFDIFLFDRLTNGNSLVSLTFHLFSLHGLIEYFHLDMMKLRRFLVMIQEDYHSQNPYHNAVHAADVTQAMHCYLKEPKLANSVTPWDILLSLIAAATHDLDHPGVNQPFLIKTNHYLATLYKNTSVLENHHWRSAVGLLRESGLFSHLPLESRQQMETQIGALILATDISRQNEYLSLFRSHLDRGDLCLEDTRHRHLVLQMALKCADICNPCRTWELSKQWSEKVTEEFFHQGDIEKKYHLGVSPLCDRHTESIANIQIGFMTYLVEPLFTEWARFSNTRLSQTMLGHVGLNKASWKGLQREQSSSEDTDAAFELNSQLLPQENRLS
Put plainly: PDE7 activity and inhibition assay (HPLC detection of cAMP and AMP). The format is biochemical. The note with it: inhibitor final concentration 0.1 μg/μl; substrate cAMP; 90 minutes. As to the method:
The activity of PDE7A1 was determined in an enzymatic assay as described below, using: • Enzyme: 0.005 U/μl PDE7A1 (Cat.#: 524751, CALBIOCHEM) • Substrate: 0.0008 μg/μl cAMP (Lot.#: BCBF5219V, SIGMA-ALDRICH) • Buffer: 10 mM Tris-HCl, pH 7.5 • Inhibitor as mentioned above: 0.3 μg/μl as a result final concentration 0.1 μg/μl
An example of the enzymatic assay for determining the activity of PDE7A1 is illustrated in FIG. 2. Briefly, substrate (10 μl), PDE7A1 (10 μl), and buffer (10 μl; as a control) were placed in an eppendorf tube in a total volume of 30 μl and immediately (at 0 minute) injected into HPLC (L-7420, HITACHI) and the contents of cAMP and AMP in the reaction mixture were detected at 254 nm under the following conditions:
Solvent: 0.2M NaH2PO4, 25 mM TBA-HS, 15% ACN, pH6
The peak areas of the cAMP and AMP were measured.
90 minutes later, the control mixture was injected again into the HPLC apparatus and the peak areas of cAMP and AMP were measured as described above and compared with that of the initial injection.
Reaction mixtures containing each of the four inhibitors (10 μl) in the same total volume were injected into the HPLC apparatus following the same procedure as described above and the peak areas of cAMP and AMP were measured and compared with that of the control sample. The percentages of inhibition were calculated.

As for `O=C(O)/C=C(\CC(=O)O)C(=O)O` [TAA, trans-aconitic acid], the “inhibitory activity against PDE1 (percentage of inhibition, FIG. 3)” value in the assay on PDE1 is “not PDE1”. Also, the “inhibitory activity against PDE7A1 (percentage of inhibition, FIG. 3)” value against PDE7A1 is on record as “specifically inhibits PDE7A1”.

The values above are taken from patent publication US9610268B2, “Trans-aconitic acid compounds and uses thereof for inhibiting phosphodiesterase 7” (Academia Sinica, priority 2013, dated 2017).
